Square brackets hold non-standard residues; d marks the D form. Peptide text beside a SMILES is read from it.
Molecular target: T1, alpha-ENaC (Homo sapiens, UniProt P37088+P51168+P51170)
T1 construct: expressed in transfected cells; host or cells: HEK293T
T1 sequence (P37088 1-669): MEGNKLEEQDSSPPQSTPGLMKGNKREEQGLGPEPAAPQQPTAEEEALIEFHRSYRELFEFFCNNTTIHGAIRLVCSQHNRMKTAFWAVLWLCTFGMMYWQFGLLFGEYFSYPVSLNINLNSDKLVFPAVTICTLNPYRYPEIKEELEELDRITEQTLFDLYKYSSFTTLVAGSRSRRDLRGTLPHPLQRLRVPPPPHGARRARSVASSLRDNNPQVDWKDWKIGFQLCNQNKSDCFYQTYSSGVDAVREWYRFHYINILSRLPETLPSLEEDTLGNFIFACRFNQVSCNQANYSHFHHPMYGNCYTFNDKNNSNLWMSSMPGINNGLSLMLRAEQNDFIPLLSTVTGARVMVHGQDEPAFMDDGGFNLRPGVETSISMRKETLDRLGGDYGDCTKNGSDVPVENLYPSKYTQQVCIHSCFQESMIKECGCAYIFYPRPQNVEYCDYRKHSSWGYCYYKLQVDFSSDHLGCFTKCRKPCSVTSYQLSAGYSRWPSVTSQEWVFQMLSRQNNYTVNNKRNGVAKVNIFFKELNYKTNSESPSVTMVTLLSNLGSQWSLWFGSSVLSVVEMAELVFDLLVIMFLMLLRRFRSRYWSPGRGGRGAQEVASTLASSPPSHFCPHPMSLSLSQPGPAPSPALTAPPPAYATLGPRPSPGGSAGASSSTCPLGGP
T1 sequence (P51168 1-640): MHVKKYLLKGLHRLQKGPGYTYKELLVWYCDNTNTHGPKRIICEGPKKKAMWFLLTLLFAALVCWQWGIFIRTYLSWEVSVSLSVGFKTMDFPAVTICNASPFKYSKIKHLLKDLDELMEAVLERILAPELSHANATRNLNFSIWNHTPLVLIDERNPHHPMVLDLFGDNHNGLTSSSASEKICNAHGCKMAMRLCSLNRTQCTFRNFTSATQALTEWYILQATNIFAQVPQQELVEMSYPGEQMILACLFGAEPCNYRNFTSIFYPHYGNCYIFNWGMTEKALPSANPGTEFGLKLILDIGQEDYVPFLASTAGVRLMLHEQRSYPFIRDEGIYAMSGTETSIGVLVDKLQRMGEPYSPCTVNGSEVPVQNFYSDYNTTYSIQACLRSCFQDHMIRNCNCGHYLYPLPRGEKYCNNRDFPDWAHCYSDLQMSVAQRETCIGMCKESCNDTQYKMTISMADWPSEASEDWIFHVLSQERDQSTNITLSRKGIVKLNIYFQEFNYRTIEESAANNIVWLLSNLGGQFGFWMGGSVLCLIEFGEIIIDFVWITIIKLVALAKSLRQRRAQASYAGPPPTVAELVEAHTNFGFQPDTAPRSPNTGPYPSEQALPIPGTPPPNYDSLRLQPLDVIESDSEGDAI
T1 sequence (P51170 1-649): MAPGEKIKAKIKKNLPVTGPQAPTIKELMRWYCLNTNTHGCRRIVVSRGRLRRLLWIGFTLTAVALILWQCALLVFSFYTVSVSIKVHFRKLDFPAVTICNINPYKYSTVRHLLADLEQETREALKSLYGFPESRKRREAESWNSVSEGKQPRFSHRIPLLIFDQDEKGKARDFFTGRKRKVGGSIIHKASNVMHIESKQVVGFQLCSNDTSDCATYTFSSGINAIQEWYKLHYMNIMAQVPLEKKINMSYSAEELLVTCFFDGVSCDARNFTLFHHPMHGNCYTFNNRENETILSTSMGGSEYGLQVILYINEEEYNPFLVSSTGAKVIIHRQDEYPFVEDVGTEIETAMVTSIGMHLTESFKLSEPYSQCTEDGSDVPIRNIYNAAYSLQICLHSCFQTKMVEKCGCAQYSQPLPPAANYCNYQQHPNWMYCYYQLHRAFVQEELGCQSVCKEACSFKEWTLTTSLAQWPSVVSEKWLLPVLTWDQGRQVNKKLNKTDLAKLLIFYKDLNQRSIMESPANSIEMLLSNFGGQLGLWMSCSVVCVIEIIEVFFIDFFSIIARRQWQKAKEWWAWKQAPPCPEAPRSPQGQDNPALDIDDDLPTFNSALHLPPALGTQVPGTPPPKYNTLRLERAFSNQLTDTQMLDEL
Assay: Internalization of alpha-ENaC in HEK293T cells, GFP-tagged alpha-ENaC co-expressed with beta and gamma ENaC
Type: cell-based
Conditions: beta-ENaC co-expressed, FIGS. 5A-5U
Text: HEK293T cells were transfected with gfp-αENaC where gfp was fused at the N-terminus of ENaC and unlabeled βENaC and γENaC using lipofectamine in 384 well plates as per the manufacturer's instructions and as published previously (see, e.g., Hobbs et al. Am J Physiol Lung Cell Mol Physiol. 2013 December; 305(12):L990-L1001. doi: 10.1152/ajplung.00103.2013. Epub 2013 October; Garland et al. Proc Natl Acad Sci USA. 2013 Oct. 1; 110(40):15973-8. doi: 10.1073/pnas.1311999110. Epub 2013 Sep. 16.; Tan et al. J Physiol. 2014 Dec. 1; 592(Pt 23):5251-68). Twenty-four hours later, peptide or vehicle control were added at t=0 and fluorescence was read using a Tecan M1000 plate reader 3 h later. Fluorescence was read at 488 nm (excitation)/510 nm (emission).

CC[C@H](C)[C@H](NC(=O)[C@@H]1CCCN1C(=O)[C@H](CC(C)C)NC(=O)[C@@H](C)NC(=O)[C@@H](C)N)C(=O)N1CCC[C@H]1C(=O)N[C@@H](CC(C)C)C(=O)N[C@@H](CC(=O)O)C(=O)N[C@@H](CCC(N)=O)C(=O)N[C@H](C(=O)N[C@H](C)C(=O)N[C@H](C)C(N)=O)[C@@H](C)O [SEQ ID NO:128, aaLPIPLDQTaa] (H-[dA][dA]LPIPLDQT[dA][dA]-NH2)
reduction of alpha-ENaC / functional receptor on the cell surface: effective in reducing alpha-ENaC
